In ChEMBL document CHEMBL5724914, “Linking interpersonal differences in gut microbiota composition and drug biotransformation activity” (2024):
Where a SMILES comes first, the peptide text is derived from it. [ ]: non-standard residue; d: D form. pGlu = O=C1CC[C@@H](C(=O)O)N1; Thz = O=C(O)[C@@H]1CSCN1

How the values were obtained:
[1] = (§1) The drug is tested on Z-014 corresponding to rat gut metagenome with ENA study accession number: PRJEB37062 and ENA sample accession number: ERS12561814 for biotransformation under anaerobic condition. The drug concentrations were measured over 9 timepoints collected between 0 and 24 hours of incubation by liquid-chromatography-coupled mass spectrometry (LC–MS); details: 2 µM
[2] = human gut metagenome, 24 h, 2 µM
[3] = human gut metagenome, 24 h, 2 µM; remark: listed apart in the source
[4] = as §1, with “on Z-001” for “on Z-014”, “to mouse” for “to rat”, “number: ERS12561801” for “number: ERS12561814”; details: 2 µM
[5] = as §1, with “on WLS-370” for “on Z-014”, “to human” for “to rat”, “number: ERS12561793” for “number: ERS12561814”; details: 2 µM
[6] = as §1, with “on Z-030” for “on Z-014”, “to mouse” for “to rat”, “number: ERS12561829” for “number: ERS12561814”; details: 2 µM
[7] = as §1, with “Z-026” for “Z-014”, “to” for “to rat gut”, “ERS12561825” for “ERS12561814”; details: 2 µM
[8] = as §1, with “on WLS-073” for “on Z-014”, “to human” for “to rat”, “number: ERS12561749” for “number: ERS12561814”; details: 2 µM
[9] = human gut metagenome, 24 h, 2 µM; remark: listed apart in the source
[10] = as §1, with “on WLS-310” for “on Z-014”, “to human” for “to rat”, “number: ERS12561785” for “number: ERS12561814”; details: 2 µM
[11] = as §1, with “on WLS-052” for “on Z-014”, “to human” for “to rat”, “number: ERS12561747” for “number: ERS12561814”; details: 2 µM
[12] = human gut metagenome, 24 h, 2 µM; remark: listed apart in the source
[13] = human gut metagenome, 24 h, 2 µM; remark: listed apart in the source
[14] = human gut metagenome, 24 h, 2 µM; remark: listed apart in the source
[15] = human gut metagenome, 24 h, 2 µM; remark: listed apart in the source
[16] = human gut metagenome, 24 h, 2 µM; remark: listed apart in the source
[17] = human gut metagenome, 24 h, 2 µM; remark: listed apart in the source
[18] = human gut metagenome, 24 h, 2 µM; remark: listed apart in the source
[19] = human gut metagenome, 24 h, 2 µM; remark: listed apart in the source
[20] = as §1, with “on WLS-077” for “on Z-014”, “to human” for “to rat”, “number: ERS12561750” for “number: ERS12561814”; details: 2 µM
Further: call rule not given here.

Bacterial Biotransformation [1] | Bacterial Biotransformation [2] | Bacterial Biotransformation [3] | Bacterial Biotransformation [4] | Bacterial Biotransformation [5] | Bacterial Biotransformation [6] | Bacterial Biotransformation [7] | Bacterial Biotransformation [8] | Bacterial Biotransformation [9] | Bacterial Biotransformation [10] | Bacterial Biotransformation [11] | Bacterial Biotransformation [12] | Bacterial Biotransformation [13] | Bacterial Biotransformation [14] | Bacterial Biotransformation [15] | Bacterial Biotransformation [16] | Bacterial Biotransformation [17] | Bacterial Biotransformation [18] | Bacterial Biotransformation [19] | Bacterial Biotransformation [20] | SMILES
Compound NOT metabolized | Compound NOT metabolized | Compound NOT metabolized | Compound NOT metabolized | Compound NOT metabolized | Compound NOT metabolized | Compound NOT metabolized |  |  |  |  |  |  |  |  |  |  |  |  |  | CCCCCCOC(=O)/N=C(/N)c1ccc(NCc2nc3cc(C(=O)N(CCC(=O)OCC)c4ccccn4)ccc3n2C)cc1.CS(=O)(=O)O [DABIGATRAN ETEXILATE MESYLATE]
Compound NOT metabolized | Compound metabolized | Compound metabolized | Compound NOT metabolized | Compound metabolized | Compound NOT metabolized |  |  | Compound metabolized | Compound metabolized | Compound NOT metabolized | Compound metabolized | Compound metabolized | Compound metabolized | Compound metabolized | Compound metabolized | Compound metabolized | Compound metabolized | Compound metabolized |  | c1ccc([C@H]2CN3CCSC3=N2)cc1 [LEVAMISOLE]
Compound metabolized | Compound metabolized | Compound NOT metabolized | Compound metabolized | Compound metabolized | Compound NOT metabolized | Compound metabolized | Compound metabolized | Compound NOT metabolized | Compound NOT metabolized | Compound metabolized | Compound NOT metabolized | Compound NOT metabolized | Compound NOT metabolized | Compound metabolized | Compound NOT metabolized | Compound NOT metabolized | Compound NOT metabolized | Compound metabolized |  | CO[C@]12C[C@@H](COC(=O)c3cncc(Br)c3)CN(C)[C@@H]1Cc1cn(C)c3cccc2c13 [NICERGOLINE]
Compound NOT metabolized | Compound NOT metabolized | Compound NOT metabolized | Compound NOT metabolized | Compound NOT metabolized | Compound NOT metabolized |  | Compound NOT metabolized |  |  |  |  | Compound NOT metabolized |  | Compound metabolized | Compound NOT metabolized | Compound NOT metabolized |  |  | Compound NOT metabolized | O=C1CC[C@@H](C(=O)N2CSC[C@H]2C(=O)O)N1 [PIDOTIMOD] ([pGlu]-[Thz]-OH)

SMILES | Bacterial Biotransformation [1] | Bacterial Biotransformation [2] | Bacterial Biotransformation [3] | Bacterial Biotransformation [4] | Bacterial Biotransformation [5] | Bacterial Biotransformation [6] | Bacterial Biotransformation [7] | Bacterial Biotransformation [8] | Bacterial Biotransformation [9] | Bacterial Biotransformation [10] | Bacterial Biotransformation [11] | Bacterial Biotransformation [12] | Bacterial Biotransformation [13] | Bacterial Biotransformation [14] | Bacterial Biotransformation [15] | Bacterial Biotransformation [16] | Bacterial Biotransformation [17] | Bacterial Biotransformation [18] | Bacterial Biotransformation [19] | Bacterial Biotransformation [20]
OCCN1CCN(CCCN2c3ccccc3Sc3ccc(C(F)(F)F)cc32)CC1 [FLUPHENAZINE] | Compound NOT metabolized | Compound metabolized | Compound metabolized | Compound metabolized | Compound metabolized | Compound NOT metabolized | Compound NOT metabolized | Compound metabolized | Compound metabolized | Compound metabolized | Compound metabolized | Compound metabolized | Compound metabolized | Compound metabolized | Compound metabolized | Compound metabolized | Compound metabolized | Compound metabolized | Compound NOT metabolized | 
